Data from patent US20240238425A1, “HSD17B13 Inhibitors and/or Degraders” (Pfizer Inc., priority 2022, published 2024).
Structures can show the parent of a compound that is named as a salt.

System: HiBiT-HSD17β13 fusion protein (N-terminal HiBiT-tagged HSD17β13 isoform D) in Huh7 HiBiT-HSD17β13 OE cells
Experiment: Whole-cell Huh7-HSD17B13 HiBiT assay (degrader potency and maximal efficacy, luminescence readout)
Type: cell-based, human
Details: 24 hour incubation, geometric mean, * = geometric mean for all forms tested (parent and salt forms); for DC50: read-out: Huh7_HIBIT-HSD17β13_DC50 GMean DC50; for Huh7_HIBIT-HSD17β13_DC50 GMean Asymptote Maximum: max. concentration 1 μM
Method: Degrader potency and maximal efficacy of test compounds were determined using a whole-cell Huh7-HSD17B13 HiBiT assay, utilizing a luminescence readout. A HiBiT tag was fused to the N-terminus of HSD17β13, and therefore the HiBiT luminescence signal produced in the assay was proportional to the level of HiBiT-HSD17β13 fusion protein in a sample.
A Huh7 HiBiT-HSD17β13 OE cell line was generated using electroporation with an N-terminal HiBiT-tagged HSD17β13 isoform D overexpression plasmid, followed by geneticin selection to produce a stable pool. Clones were created with varying HiBiT signals to optimize HiBiT HSD17 β13 ratios. A clone with similar HSD17β13 expression levels as human primary hepatocytes was selected for the compound screen.
Greiner 384-well white opaque, flat bottom, tissue culture treated plates (Greiner #781080) were used for both HiBiT and CTG assays. The treated plates were spotted with 25 nL of a compound which had been serial diluted 1 in 3.162 in 100% DMSO for an 11-point concentration response curve, with duplicate points at each concentration. The maximum concentration of the compounds was 1 mM, which was later diluted with cell suspension for a maximum concentration of 1 μM). High percentage effect (HPE) wells and zero percentage effect (ZPE) wells located in columns 1 and 24 were spotted with 25 nL of DMSO (Sigma #D2650) using an ECHO Acoustic Liquid Handler (Labcyte Echo 550 Series). Each plate was performed in duplicate.
The Huh7 HiBiT-HSD17β13 OE cells were plated on top of a compound or a DMSO control at 3,000 viable cells/well in 25 μL growth media (DMEM (Gibco #10569), 10% FBS HI (Gibco #16140), 1× Pen/Strep (Gibco #15070), 1×MEM Non-Essential Amino Acids (Gibco #11140), and 300 μg/mL Geneticin (Gibco #10131) in columns 2-24 of the plates. Huh7 parental cells were plated using the same parameters in column 1 (HPE) in the same culture medium, excluding Geneticin selection. Cells were incubated overnight with the compounds for 24 hours (with lid) at 37° C. ([…]).
Each assay was conducted after a 24 hour incubation period. In the HiBiT assay plates, 25 μL of complete Nano-Glo HiBiT Lytic detection system (Promega #PRN3040), consisting of HiBiT Lytic Buffer with the addition of 1:100 LgBiT Protein and 1:50 Substrate, was added to each well. In CTG counter screen plates, 25 μL of Cell Titer-Glo Luminescent Reagent (Promega #G7573) was added to each well. Both plates were centrifuged for 2 minutes at 1000 rpm and incubated at room temperature, in the dark, for 10 minutes. Then Luminescence was read using an EnVision Plate Reader (Perkin Elmer PE2103).
The raw data from the Envision Plate Reader was expressed as relative luminescence units (RLUs) for each well of the assay plates. Using HPE and ZPE controls, the % effect was calculated for each sample well as follows: Percent effect=[(sample RLU−HPE RLU)\(ZPE RLU−HPE RLU)]*100. The percent effect was plotted versus the compound concentration and a 50% degradation ([…]) was determined using a four-parameter logistic dose response equation. The raw data was analyzed using ABase (IDBS).

DC50 [nM] | Structure (SMILES) | Huh7_HIBIT-HSD17β13_DC50 GMean Asymptote Maximum
0.42 | Cn1c(=O)n(C2CCC(=O)NC2=O)c2ccc(CCCN3CCN(c4ccc5nn(C6CCC(CNC(=O)c7cc(F)c(O)c(F)c7F)CC6)cc5n4)CC3)cc21.O=CO (racemic) [Example 16, N-{[(1r,4r)-4-{5-[4-(3-{1-[(3RS)-2,6-Dioxopiperidin-3-yl]-3-methyl-2-oxo-2,3-dihydro-1H-benzimidazol-5-yl}propyl)piperazin-1-yl]-2H-pyrazolo[4,3-b]pyridin-2-yl}cyclohexyl]methyl}-2,3,5-trifluoro-4-hydroxybenzamide, formate salt] | 82%
0.58 | Cn1c(=O)n(C2CCC(=O)NC2=O)c2ccc(CCCN3CCN(c4nccc(-c5ncc(C67CCC(CNC(=O)c8cc(F)c(O)c(F)c8F)(CC6)CC7)o5)n4)CC3)cc21 (racemic) [Example 18, N-{[4-(2-{2-[4-(3-{1-[(3RS)-2,6-Dioxopiperidin-3-yl]-3-methyl-2-oxo-2,3-dihydro-1H-benzimidazol-5-yl}propyl)piperazin-1-yl]pyrimidin-4-yl}-1,3-oxazol-5-yl)bicyclo[2.2.2]octan-1-yl]methyl}-2,3,5-trifluoro-4-hydroxybenzamide] | 82%
0.38 | Cn1c(=O)n(C2CCC(=O)NC2=O)c2ccc(CCCN3CCc4nc(-c5ccc6cn([C@H]7CC[C@H](CNC(=O)c8cc(F)c(O)c(F)c8F)CC7)nc6c5)ccc4C3)cc21 (mixture of isomers) [Example 21, N-{[(1r,4r)-4-{6-[6-(3-{1-[(3RS)-2,6-Dioxopiperidin-3-yl]-3-methyl-2-oxo-2,3-dihydro-1H-benzimidazol-5-yl}propyl)-5,6,7,8-tetrahydro-1,6-naphthyridin-2-yl]-2H-indazol-2-yl}cyclohexyl]methyl}-2,3,5-trifluoro-4-hydroxybenzamide] | 74%
1.6 | Cn1c(=O)n(C2CCC(=O)NC2=O)c2ccc(CCCN3C[C@H]4CCN(c5ccc6cn(C7CCC(CNC(=O)c8cc(F)c(O)c(F)c8F)CC7)nc6c5)C[C@H]4C3)cc21.O=CO (mixture of isomers) [Example 22, N-{[(1r,4r)-4-{6-[(3aR,7aS)-2-(3-{1-[(3RS)-2,6-Dioxopiperidin-3-yl]-3-methyl-2-oxo-2,3-dihydro-1H-benzimidazol-5-yl}propyl)octahydro-5H-pyrrolo[3,4-c]pyridin-5-yl]-2H-indazol-2-yl}cyclohexyl]methyl}-2,3,5-trifluoro-4-hydroxybenzamide, formate salt] | 77%
0.18 | Cl.Cn1c(=O)n(C2CCC(=O)NC2=O)c2ccc(CCCN3CCN(c4ncc(-c5ccc6cn([C@H]7CC[C@H](CNC(=O)c8cc(F)c(O)c(F)c8F)CC7)nc6c5)cn4)CC3)cc21 (mixture of isomers) [Example 24, N-{[(1r,4r)-4-(6-{2-[4-(3-{1-[(3RS)-2,6-dioxopiperidin-3-yl]-3-methyl-2-oxo-2,3-dihydro-1H-benzimidazol-5-yl}propyl)piperazin-1-yl]pyrimidin-5-yl}-2H-indazol-2-yl)cyclohexyl]methyl}-2,3,5-trifluoro-4-hydroxybenzamide, hydrochloride salt] | 88* %
0.85 | Cl.Cn1c(=O)n(C2CCC(=O)NC2=O)c2cccc(CN3CCN(c4ncc(-c5ccc6cn([C@H]7CC[C@H](CNC(=O)c8cc(F)c(O)c(F)c8F)CC7)nc6c5)cn4)CC3)c21 (mixture of isomers) [Example 25, N-{[(1r,4r)-4-(6-{2-[4-({1-[(3RS)-2,6-dioxopiperidin-3-yl]-3-methyl-2-oxo-2,3-dihydro-1H-benzimidazol-4-yl}methyl)piperazin-1-yl]pyrimidin-5-yl}-2H-indazol-2-yl)cyclohexyl]methyl}-2,3,5-trifluoro-4-hydroxybenzamide, hydrochloride salt] | 84%
0.5 | Cl.Cn1c(=O)n(C2CCC(=O)NC2=O)c2ccc(CN3CCN(c4ncc(-c5ccc6cn([C@H]7CC[C@H](CNC(=O)c8cc(F)c(O)c(F)c8F)CC7)nc6c5)cn4)CC3)cc21 (mixture of isomers) [Example 26, N-{[(1r,4r)-4-(6-{2-[4-({1-[(3RS)-2,6-dioxopiperidin-3-yl]-3-methyl-2-oxo-2,3-dihydro-1H-benzimidazol-5-yl}methyl)piperazin-1-yl]pyrimidin-5-yl}-2H-indazol-2-yl)cyclohexyl]methyl}-2,3,5-trifluoro-4-hydroxybenzamide, hydrochloride salt] | 82%
0.82 | Cl.Cn1c(=O)n(C2CCC(=O)NC2=O)c2ccc(CCCN3CCN(c4ccc5cn([C@H]6CC[C@H](CNC(=O)c7cc(F)c(O)c(F)c7F)CC6)nc5c4)CC3)cc21 (mixture of isomers) [Example 27, N-{[(1r,4r)-4-{6-[4-(3-{1-[(3RS)-2,6-dioxopiperidin-3-yl]-3-methyl-2-oxo-2,3-dihydro-1H-benzimidazol-5-yl}propyl)piperazin-1-yl]-2H-indazol-2-yl}cyclohexyl]methyl}-2,3,5-trifluoro-4-hydroxybenzamide, hydrochloride salt] | 86%
0.99 | Cn1c(=O)n(C2CCC(=O)NC2=O)c2ccc(CCCN3CCn4c(-c5ccc6cn([C@H]7CC[C@H](CNC(=O)c8cc(F)c(O)c(F)c8F)CC7)nc6c5)cnc4C3)cc21 (mixture of isomers) [Example 31, N-{[(1r,4r)-4-{6-[7-(3-{1-[(3RS)-2,6-dioxopiperidin-3-yl]-3-methyl-2-oxo-2,3-dihydro-1H-benzimidazol-5-yl}propyl)-5,6,7,8-tetrahydroimidazo[1,2-a]pyrazin-3-yl]-2H-indazol-2-yl}cyclohexyl]methyl}-2,3,5-trifluoro-4-hydroxybenzamide, trifluoroacetate salt] | 85%
0.3 | Cn1c(=O)n(C2CCC(=O)NC2=O)c2ccc(CCCN3CCc4ccc(-c5ccc6cn([C@H]7CC[C@H](CNC(=O)c8cc(F)c(O)c(F)c8F)CC7)nc6c5)cc4C3)cc21 (mixture of isomers) [Example 32, N-{[(1r,4r)-4-{6-[2-(3-{1-[(3RS)-2,6-dioxopiperidin-3-yl]-3-methyl-2-oxo-2,3-dihydro-1H-benzimidazol-5-yl}propyl)-1,2,3,4-tetrahydroisoquinolin-7-yl]-2H-indazol-2-yl}cyclohexyl]methyl}-2,3,5-trifluoro-4-hydroxybenzamide, trifluoroacetate salt] | 83%
0.62 | Cn1c(=O)n(C2CCC(=O)NC2=O)c2ccc(CCCN3CC(n4cc(-c5ccc6cn([C@H]7CC[C@H](CNC(=O)c8cc(F)c(O)c(F)c8F)CC7)nc6c5)cn4)C3)cc21 (mixture of isomers) [Example 33, N-{[(1r,4r)-4-(6-{1-[1-(3-{1-[(3RS)-2,6-dioxopiperidin-3-yl]-3-methyl-2-oxo-2,3-dihydro-1H-benzimidazol-5-yl}propyl)azetidin-3-yl]-1H-pyrazol-4-yl}-2H-indazol-2-yl)cyclohexyl]methyl}-2,3,5-trifluoro-4-hydroxybenzamide] | 86%

Structure (SMILES) | DC50 [nM] | Huh7_HIBIT-HSD17β13_DC50 GMean Asymptote Maximum
Cn1c(=O)n(C2CCC(=O)NC2=O)c2ccc(CCCN3CCN(c4nccc(-c5nc(C6CCC(CNC(=O)c7cc(F)c(O)c(F)c7F)CC6)no5)n4)CC3)cc21.O=C(O)C(F)(F)F (racemic) [Example 17, N-{[(1r,4r)-4-(5-{2-[4-(3-{1-[(3RS)-2,6-Dioxopiperidin-3-yl]-3-methyl-2-oxo-2,3-dihydro-1H-benzimidazol-5-yl}propyl)piperazin-1-yl]pyrimidin-4-yl}-1,2,4-oxadiazol-3-yl)cyclohexyl]methyl}-2,3,5-trifluoro-4-hydroxybenzamide, trifluoroacetate salt] | 0.47 | 85%
